According to US8686150B2 (Sanofi, priority 2011, dated 2014):

Biological target: T1, human full-length recombinant PKC βII (Homo sapiens, UniProt P05771)
T1 construct: Active human full-length recombinant PKC βII; purchased Invitrogen GmbH, Darmstadt, Germany
Test: Determination of PKC βII inhibition (Caliper mobility-shift kinase assay, Fluorescein-RFARKGSLRQKNV peptide substrate)
Type: biochemical
Settings: example compounds at a final concentration of 1.14 μM (±0.15 μM)
Summary of the method: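 Full-length PKC βII (30 ng/ml in pre-dilution) with PS/DAG/Ca2+ activators, pH 7.4; fluorescein peptide and ATP at 3 μM and 120 μM before mixing. Reaction ran 60 min at 32 °C, was EDTA-stopped, and was read by mobility shift. % inhibition came from product/(substrate+product) peak heights, tested at 1.14 μM final.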

T1 sequence (P05771 1-673 isoform P05771-2): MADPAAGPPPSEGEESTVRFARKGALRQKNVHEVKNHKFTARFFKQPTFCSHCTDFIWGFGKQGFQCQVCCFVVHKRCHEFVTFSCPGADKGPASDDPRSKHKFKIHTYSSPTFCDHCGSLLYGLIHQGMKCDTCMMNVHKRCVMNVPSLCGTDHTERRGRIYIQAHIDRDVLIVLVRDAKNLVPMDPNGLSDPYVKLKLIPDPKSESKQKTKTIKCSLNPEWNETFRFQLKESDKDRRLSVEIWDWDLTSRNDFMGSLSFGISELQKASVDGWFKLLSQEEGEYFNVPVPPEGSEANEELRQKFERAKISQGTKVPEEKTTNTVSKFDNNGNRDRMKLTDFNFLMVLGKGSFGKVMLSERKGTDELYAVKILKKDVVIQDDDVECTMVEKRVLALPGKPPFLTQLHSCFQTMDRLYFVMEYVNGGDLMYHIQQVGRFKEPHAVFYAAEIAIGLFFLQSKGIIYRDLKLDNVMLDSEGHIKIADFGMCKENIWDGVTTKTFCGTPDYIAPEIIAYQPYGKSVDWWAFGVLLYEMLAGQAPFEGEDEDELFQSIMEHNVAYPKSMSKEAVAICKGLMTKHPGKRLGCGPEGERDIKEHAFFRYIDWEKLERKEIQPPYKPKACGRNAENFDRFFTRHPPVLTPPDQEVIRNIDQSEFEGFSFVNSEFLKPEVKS

| inhibition at 1.14 µM | Structure (SMILES) |
| --- | --- |
| 99% | CCC1(C)CNC(C)(C)CN1C(=O)c1cc(-c2ccc(O)cc2F)nc2[nH]nc(C)c12 (stereo not drawn) [Example 449, (2-Ethyl-2,5,5-trimethyl-piperazin-1-yl)-[6-(2-fluoro-4-hydroxy-phenyl)-3-methyl-1H-pyrazolo[3,4-b]pyridin-4-yl]-methanone] |
| 91% | Cc1n[nH]c2nc(-c3ccc(O)cc3)cc(C(=O)NC(C)(C)CCN)c12 [Example 128, 6-(4-Hydroxy-phenyl)-3-methyl-1H-pyrazolo[3,4-b]pyridine-4-carboxylic acid (3-amino-1,1-dimethyl-propyl)-amide] |
| 81% | Cc1n[nH]c2nc(-c3ccc(O)c(F)c3)cc(C(=O)NC3CCCNC3)c12 (stereo not drawn) [Example 349, 6-(3-Fluoro-4-hydroxy-phenyl)-3-methyl-1H-pyrazolo[3,4-b]pyridine-4-carboxylic acid piperidin-3-ylamide] |
| 85% | CCCC[C@H]1CN(C(=O)c2cc(-c3ccc(O)c(F)c3)nc3[nH]nc(C)c23)CCN1 [Example 294, ((S)-3-Butyl-piperazin-1-yl)-[6-(3-fluoro-4-hydroxy-phenyl)-3-methyl-1H-pyrazolo[3,4-b]pyridin-4-yl]-methanone] |
| 97% | Cc1n[nH]c2nc(-c3ccc(O)cc3F)cc(C(=O)N3CCN[C@H]4CCCC[C@@H]43)c12 [Example 443, [6-(2-Fluoro-4-hydroxy-phenyl)-3-methyl-1H-pyrazolo[3,4-b]pyridin-4-yl]-(4aS,8aS)-octahydro-quinoxalin-1-yl-methanone] |
| 34% | Cc1n[nH]c2nc(-c3ccc(O)c(F)c3)cc(C(=O)N3CC4CCCN4CC3c3ccccc3)c12 (stereo not drawn) [Example 369, [6-(3-Fluoro-4-hydroxy-phenyl)-3-methyl-1H-pyrazolo[3,4-b]pyridin-4-yl]-(3-phenyl-hexahydro-pyrrolo[1,2-a]pyrazin-2-yl)-methanone] |
| 93% | CNC1CCN(C(=O)c2cc(-c3ccc(O)cc3F)nc3[nH]nc(C)c23)CC1 [Example 58, [6-(2-Fluoro-4-hydroxy-phenyl)-3-methyl-1H-pyrazolo[3,4-b]pyridin-4-yl]-(4-methylamino-piperidin-1-yl)-methanone] |
| 98% | Cc1cc(O)ccc1-c1cc(C(=O)N2CCNCC2c2ccc(F)cc2)c2c(C)n[nH]c2n1 (stereo not drawn) [Example 138, [2-(4-Fluoro-phenyl)-piperazin-1-yl]-[6-(4-hydroxy-2-methyl-phenyl)-3-methyl-1H-pyrazolo[3,4-b]pyridin-4-yl]-methanone] |
| 96% | Cc1n[nH]c2nc(-c3ccc(O)cc3)cc(C(=O)N3CCNCC3c3c(F)cccc3F)c12 (stereo not drawn) [Example 100, [2-(2,6-Difluoro-phenyl)-piperazin-1-yl]-[6-(4-hydroxy-phenyl)-3-methyl-1H-pyrazolo[3,4-b]pyridin-4-yl]-methanone] |
| 95% | Cc1n[nH]c2nc(-c3ccc(O)cc3)cc(C(=O)N3C[C@H](C)NC[C@H]3c3ccccc3)c12 [Example 459, [6-(4-Hydroxy-phenyl)-3-methyl-1H-pyrazolo[3,4-b]pyridin-4-yl]-((2R,5S)-5-methyl-2-phenyl-piperazin-1-yl)-methanone] |
| 92% | Cc1n[nH]c2nc(-c3ccc(O)cc3)cc(C(=O)N3CC4CC3CN4)c12 (stereo not drawn) [Example 19, 2,5-Diaza-bicyclo[2.2.1]hept-2-yl-[6-(4-hydroxy-phenyl)-3-methyl-1H-pyrazolo[3,4-b]pyridin-4-yl]-methanone] |
| 104% | Cc1n[nH]c2nc(-c3ccc(O)cc3F)cc(C(=O)N3CC4(CCCC4)NCC3(C)C)c12 [Example 451, (8,8-Dimethyl-6,9-diaza-spiro[4.5]dec-9-yl)-[6-(2-fluoro-4-hydroxy-phenyl)-3-methyl-1H-pyrazolo[3,4-b]pyridin-4-yl]-methanone] |
| 32% | Cc1ccc(C(=O)N2CCN(C(=O)c3cc(-c4ccc(O)cc4)nc4[nH]nc(C)c34)CC2)cc1 [Example 267, [6-(4-Hydroxy-phenyl)-3-methyl-1H-pyrazolo[3,4-b]pyridin-4-yl]-[4-(4-methyl-benzoyl)-piperazin-1-yl]-methanone] |
| 35% | Cc1n[nH]c2nc(-c3ccc(O)c(F)c3)cc(C(=O)N3CC[C@@H](N(C)C)C3)c12 [Example 347, ((R)-3-Dimethylamino-pyrrolidin-1-yl)-[6-(3-fluoro-4-hydroxy-phenyl)-3-methyl-1H-pyrazolo[3,4-b]pyridin-4-yl]-methanone] |
| 77% | Cc1n[nH]c2nc(-c3ccc(O)cc3)cc(C(=O)NC3CCNC3)c12 (stereo not drawn) [Example 106, 6-(4-Hydroxy-phenyl)-3-methyl-1H-pyrazolo[3,4-b]pyridine-4-carboxylic acid pyrrolidin-3-ylamide] |
| 64% | COC(=O)[C@H]1CN(C(=O)c2cc(-c3ccc(O)cc3)nc3[nH]nc(C)c23)CCN1 [Example 211, (R)-4-[6-(4-Hydroxy-phenyl)-3-methyl-1H-pyrazolo[3,4-b]pyridine-4-carbonyl]-piperazine-2-carboxylic acid methyl ester] |
| 40% | CCc1n[nH]c2nc(-c3ccc(O)cc3)cc(C(=O)N3CC[C@@H](N(C)C)C3)c12 [Example 176, ((R)-3-Dimethylamino-pyrrolidin-1-yl)-[3-ethyl-6-(4-hydroxy-phenyl)-1H-pyrazolo[3,4-b]pyridin-4-yl]-methanone] |
| 88% | Cc1n[nH]c2nc(-c3ccc(O)cc3)cc(C(=O)N3CCC(N)C3)c12 (stereo not drawn) [Example 264, (3-Amino-pyrrolidin-1-yl)-[6-(4-hydroxy-phenyl)-3-methyl-1H-pyrazolo[3,4-b]pyridin-4-yl]-methanone] |
| 69% | Cc1n[nH]c2nc(-c3ccc(O)cc3)cc(C(=O)N3CC(N)C3)c12 [Example 247, (3-Amino-azetidin-1-yl)-[6-(4-hydroxy-phenyl)-3-methyl-1H-pyrazolo[3,4-b]pyridin-4-yl]-methanone] |
| 86% | CCCc1n[nH]c2nc(-c3ccc(O)cc3)cc(C(=O)N3CCNCC3)c12 [Example 4] |
| 100% | Cc1cc(O)ccc1-c1cc(C(=O)N2CCNCC2c2cc(F)cc(F)c2)c2c(C)n[nH]c2n1 (stereo not drawn) [Example 136, [2-(3,5-Difluoro-phenyl)-piperazin-1-yl]-[6-(4-hydroxy-2-methyl-phenyl)-3-methyl-1H-pyrazolo[3,4-b]pyridin-4-yl]-methanone] |
| 77% | Cc1n[nH]c2nc(-c3ccc(O)c(F)c3)cc(C(=O)NC3CC4CC3CN4)c12 (stereo not drawn) [Example 350, 6-(3-Fluoro-4-hydroxy-phenyl)-3-methyl-1H-pyrazolo[3,4-b]pyridine-4-carboxylic acid (2-aza-bicyclo[2.2.1]hept-5-yl)-amide] |
| 88% | Cc1n[nH]c2nc(-c3ccc(O)cc3)cc(C(=O)N3C[C@]4(C)CN(C)C[C@](C)(C3)C4O)c12 (stereo partly drawn) [Example 274, [6-(4-Hydroxy-phenyl)-3-methyl-1H-pyrazolo[3,4-b]pyridin-4-yl]-((1S,5R)-9-hydroxy-1,5,7-trimethyl-3,7-diaza-bicyclo[3.3.1]non-3-yl)-methanone] |
| 88% | Cc1cc(O)ccc1-c1cc(C(=O)N2CC(C)(C)NCC2(C)C)c2c(C)n[nH]c2n1 [Example 155, [6-(4-Hydroxy-2-methyl-phenyl)-3-methyl-1H-pyrazolo[3,4-b]pyridin-4-yl]-(2,2,5,5-tetramethyl-piperazin-1-yl)-methanone] |
